Measurements published in EP0727211A1, “Use of src SH2 specific compounds to treat a bone resorption disease” (SMITHKLINE BEECHAM CORPORATION, priority 1995, dated 1996).

Assays:
[1] = biological target: T1, human fyn SH2 domain (Homo sapiens, UniProt P06241); assay: SH2 domain / pY peptide binding assay (ELISA-based, 96 well plate), fyn SH2; conditions: for Ki: Ki calculated from IC50 by the expanded equation, Table II; for IC50: cloned human SH2 domain fusion protein, 0.1 uM biotinylated pY peptide, Table I
T1 construct: SH2 domain of human fyn (amino acids 143-252); made in house; host or cells: E. coli (pGEX-2T)
Description: (§1) The inhibitory activity of compounds at the different human SH2 domains was determined in vitro using SH2 domains expressed as fusion proteins in E. coli. The SH2 domains used herein were the human forms of the src SH2 domain, Grb2 SH2 domain, lck SH2 domain, fyn SH2 domain, SH-PTP2 SH2 domain, p85 SH2 domain and hcp SH2 domain.
(§2) Fusion proteins having the structure GST-X-SH2 were prepared as described in the GST gene fusion kit system available from Pharmacia (New Jersey). GST is the tagging sequence glutathione s-transferase epitope (SEQ ID NO: 8) for fyn, Grb2 and SH-PTP2 and is the tagging sequence glutathione s-transferase epitope (SEQ ID NO: 9) for p85. SH2 refers to the SH2 domains of fyn, Grb2, p85 and SH-PTP2 which were expressed and purified using glutathione Sepharose 4B (Pharmacia) according to "Current Protocols in Molecular Biology", ed. FM Ausubel et al., pub. John Wiley and Sons, Inc., (1995), p 16.7.1. X is an appropriate linker, preferably of 6 to 21 base pairs, used to keep the SH2 construct in frame and complement cloning. As such, the sequence of X is not critical. One skilled in the art can readily construct the appropriate linker. The DNA sequence encoding each GST-X-SH2 fusion protein was designed such that the indicated restriction sites (BamH1 and EcoRI) flank the SH2 region. The vector used in the instant experiments was the E. coli expression vector pGEX-2T (Pharmacia) for fyn, Grb2 and SH-PTP2, and pGEX-3X (Pharmacia) for p85. Each of these vectors result in SH2 constructs having additional C-terminal amino acids as described below.
The sequence encoding the SH2 domain of human fyn (amino acids 143-252) (Yamamoto, T. et al. Proc. Natl. Acad. Sci. USA 83, 5459-5463 (1986)) was cloned into the BamHI and EcoRI sites of the expression vector pGEX-2T. The SH2 domain including the additional C-terminal amino acids leucine-threonine-asparagine-serine-serine (SEQ ID NO: 10) was cloned by PCR techniques known to those skilled in the art to yield the expressed fusion protein GST-X-fyn.
(§3) The binding assays for the SH2 domains and pY peptides were performed in an ELISA-based 96 well plate assay. In Millipore 96 well filter plates, hydrophilic Durapore® (pore size 0.65um Cat. No. MADVN6550), was added 2 ul (50% suspension) of Protein-G Sepharose (available from Pharmacia of N.J. Cat. No. 17-0618-01) and either 2 ul of 2 mg/ml of MAB178. (for gp120/SH2 domain fusion proteins src, lck and hcp) or 0.25 ul of anti-GST polyclonal antisera (available from Pharmacia of N.J.) (for GST/SH2 domain fusion proteins fyn, Grb2, p85 and SH-PTP2). 10 pmol of the subject SH2 domain fusion protein were added to their respective wells. The volume was brought to 100 ul with TBS-T (tris buffered saline plus 0.05% tween-20), incubated and shaken at room trmperature for 1 hr. then washed 1x with TBS-T (4°C). 90 ul of TBS-T were then added to each well. Specific pY biotinylated peptides were diluted to a concentration of 1.0 uM in TBS-T (these peptides can be obtained from Bachem Bioscience of Pennsylvania, Genosys Biotechnologies of Texas and California Peptide Research of California). 10 ul was aliquoted per well to yield a final concentration of 0.1 uM (approx, the Kd for each SH2 domain/peptide pair) and a final volume of 100 ul. The assay plates were incubated until equilibrium binding was attained (3 hr at 4°C with shaking). The assay plates were washed 2 X per well TBS-T (4°C), then 100 ul of SABC (Strepavidin biotinylated horseradish peroxidase complex, available from the Zymed corporation of California cat. no. 93-0043, 1 drop reagent A (streptavidin) and 1 drop of reagent B (AH-biotin conjugated-horseradish peroxidase) per 10 ml of TBS-T, incubated at 37°C for 30 minutes, then cooled to 4°C) was added per well, then incubated at 4°C for 30-60 minutes. The plates were then washed 4 X with TBS-T (4°C) (250 ul/well)/wash). […]

[2] = biological target: T2, human p85 SH2 domain (Homo sapiens, UniProt P27986); assay: SH2 domain / pY peptide binding assay (ELISA-based, 96 well plate), p85 SH2; conditions: for Ki: Ki calculated from IC50 by the expanded equation, Table II; for IC50: cloned human SH2 domain fusion protein, 0.1 uM biotinylated pY peptide, Table I
T2 construct: SH2 domain of human p85 (amino acids 321-440); made in house; host or cells: E. coli (pGEX-3X)
Description: as §1, §2
Human p85 SH2 domain: The sequence encoding the SH2 domain of human p85 (amino acids 321-440) (Skolnik, E. et al., Cell 65, 83-90 (1991)) was cloned into the BamHI and EcoRI sites of the expression vector pGEX-3X. The SH2 domain including the additional C-terminal amino acids asparagine-serine-serine (SEQ ID NO: 11)was cloned by PCR techniques known to those skilled in the art to yield the expressed fusion protein GST-X-p85.
as §3, with “ul/well)/wash). 100 ul of 1 mg/ml OPD (o-phenyldiamine, Sigma Chemical Corporation, St. Louis Missouri) in Citrate Buffer was added per well.” for “ul/well)/wash).”

T1 sequence (P06241 143-252): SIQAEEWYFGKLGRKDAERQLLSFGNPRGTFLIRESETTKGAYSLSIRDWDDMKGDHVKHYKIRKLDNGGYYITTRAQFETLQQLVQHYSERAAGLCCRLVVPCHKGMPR
T2 sequence (P27986 321-440): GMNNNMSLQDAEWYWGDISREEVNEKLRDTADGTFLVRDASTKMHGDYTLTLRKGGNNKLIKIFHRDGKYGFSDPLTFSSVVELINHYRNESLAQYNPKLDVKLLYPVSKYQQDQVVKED

Ki [1] [mM] | IC50 [1] [µM] | Ki [2] [mM] | IC50 [2] [µM] | Molecule
> 1 | > 300 | > 1 | > 300 | Cc1nc2sc3c(c2c2[nH][nH]c(=O)c12)CCC1(C3)OCCO1 [Compound 3, 8,8-Ethylenedioxy-2,3,7,8,9,10-hexahydro-4-methyl-1H-benzo[b]thieno[2,3-b]pyrazolo[3,4-d]pyridin-3-one]
> 1 | > 300 | > 1 | > 300 | CCCCCCNC(=O)[C@H]1CC[C@H](CNC(=O)c2ccc([N+](=O)[O-])cc2)CC1 [Compound 7, 4-nitro-benzamido-trans-4-methyl-cyclohexyl-N-hexyl carboxamide]
> 1 | > 300 | > 1 | > 300 | CCCNC(=O)[C@H]1CC[C@H](CNC(=O)/C=C/c2ccc(C=O)cc2)CC1 [Compound 9, 4-formyl-E-cinnamido-trans-4-methyl-cyclohexyl-N-(propyl) carboxamide]
> 1 | > 300 | > 1 | > 300 | Cc1nnc(SCC2=C(C(=O)O)N3C(=O)[C@@H](NC(=O)C(N)c4ccc(C(=O)O)cc4)[C@H]3SC2)s1 (stereo partly drawn) [Compound 1, 7-[D,L-α-Amino-α-(4-carboxyphenyl)acetamido]-3-[2-(5-methyl-1,3,4-thiadiazolyl)thiomethyl]Δ^3-cephem-4-carboxylic Acid]
> 1 | > 300 | > 1 | > 300 | Cc1nc2sc3c(c2c2c1c(=O)[nH]n2C)CCC1(C3)OCCO1 [Compound 5, 1,4-Dimethyl-8,8-ethylenedioxy-2,3,7,8,9,10-hexahydro-1H-benzo[b]thieno[2,3-b]pyrazolo[3,4-d]pyridin-3-one]
> 1 | > 300 | > 1 | > 300 | Cc1ccc(C(=O)c2ccc(C(=O)c3ccc(CC=O)cc3)cc2)cc1 [Compound 4, 4-[4-(4-Methylbenzoyl)benzoyl]phenylacetaldehyde]
> 1 | > 300 | > 1 | > 300 | Cc1nc2sc3c(c2c2[nH][nH]c(=O)c12)CCCC3 [Compound 10, 2,3,7,8,9,10-Hexahydro-4-methyl-1H-benzo[b]thieno[2,3-b]pyrazolo[3,4-d]pyridin-3-one]

Molecule | Ki [1] [mM] | IC50 [1] [µM] | Ki [2] [mM] | IC50 [2] [µM]
N[C@@H](Cc1cc(Br)c(Oc2ccc(O)c(Cc3ccc(O)nn3)c2)c(Br)c1)C(=O)O [Compound 2, L-3,5-Dibromo-3'-(6-oxo-3(1H)-pyridazinylmethyl)-thyronine] | > 1 | > 300 | > 1 | > 300
4-acetamido-benzamido-trans-4-methyl-cyclohexyl-N-1-(amino-R-2-(methoxy methyl)-pyrrolidine) carboxamide [Compound 8] | > 1 | > 300 | > 1 | > 300
